# From patent US20120077802A1 (SUNOVION PHARMACEUTICALS INC., priority 2009, published 2012)
# Key:
# [1] = molecular target: T1, human histamine H3 receptor (Homo sapiens, UniProt Q9Y5N1); test: H3 GTPγS assay (SPA method), histamine H3 in vitro assay; type: biochemical; details: GTPγ[35S] SPA, membranes of cells expressing human H3 receptor; in one embodiment HCl salts tested; read-out: Potency (functional potency as indicated by IC50)
# T1 construct: host or cells: cells expressing the human H3 receptor
# T1 sequence (Q9Y5N1 whole entry): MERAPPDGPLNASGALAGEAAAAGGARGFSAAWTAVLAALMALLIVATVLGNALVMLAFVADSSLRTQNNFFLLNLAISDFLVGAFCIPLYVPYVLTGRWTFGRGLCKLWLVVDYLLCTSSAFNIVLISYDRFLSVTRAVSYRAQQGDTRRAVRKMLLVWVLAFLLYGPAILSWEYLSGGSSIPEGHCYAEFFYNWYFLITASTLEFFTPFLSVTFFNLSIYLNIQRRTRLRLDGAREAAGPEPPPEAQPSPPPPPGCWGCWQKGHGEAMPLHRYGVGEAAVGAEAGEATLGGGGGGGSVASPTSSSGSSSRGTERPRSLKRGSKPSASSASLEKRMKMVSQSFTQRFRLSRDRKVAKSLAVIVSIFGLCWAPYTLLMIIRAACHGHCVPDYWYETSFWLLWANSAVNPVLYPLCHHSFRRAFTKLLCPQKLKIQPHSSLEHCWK
# [2] = In vivo rat PK, brain exposures; details: adult male rats, oral gavage in water, 3 mg/kg; for concentration at 1 hr: 1 hr after dosing, read-out: Compound Concentration (ng/g rat brain) 1 hr; for concentration at 24 hr: 24 hr after dosing, read-out: Compound Concentration (ng/g rat brain) 24 hr
# Procedure: In vivo rat PK studies were performed using certain compounds provided herein. In one embodiment, a compound was dissolved in water and was administered to adult male rats (n=3 per time point) by oral gavage at a dose of 3 to 10 mg/kg. The plasma samples were collected and brain tissues were harvested at various time points after dosing, e.g., 15 min, 30 min, 1 hr, 2 hr, and 24 hr after dosing. The PK samples were analyzed; and the compound concentrations in these samples were quantified by LC/MS. The pKa values of the R^6 moiety of the compounds were calculated using ACD Lab (Version 12.01).
IC50 [1],concentration at 1 hr [2],concentration at 24 hr [2],SMILES
≤ 10 nM,900 ng/g,140 ng/g,"c1cc2c(cc1CN1CCOCC1)CC1(CCN(C3CCC3)CC1)O2 [Compound 40, 1′-Cyclobutyl-5-(morpholinomethyl)-3H-spiro[benzofuran-2,4′-piperidine]]"
≤ 10 nM,< 25 ng/g,450 ng/g,"c1cc2c(cc1CN1CCCC1)CC1(CCN(C3CCC3)CC1)O2 [Compound 41, 1′-Cyclobutyl-5-(pyrrolidin-1-ylmethyl)-3H-spiro[benzofuran-2,4′-piperidine]]"
